{"source": "patent US20190231841A1", "about": "“CENCHRUS CILIARIS L. AS AN ANTICANCER AGENT” (KING SAUD UNIVERSITY, priority 2018, published 2019)", "assay_type_in_all_cases": "cell-based", "key": {"[1]": {"tested_on": "A-549 (Lung carcinoma)", "experiment": "MTT cytotoxicity assay, A-549", "settings": "Homo sapiens, A549, 24 h, 24 h incubation", "procedure": "(§1) The cell lines A-549 (Lung carcinoma), CACO (Colorectal carcinoma), HCT-116 (Colon carcinoma), Hela (Cervical carcinoma), HepG-2 (Hepatocellular carcinoma), and MCF-7 (Breast carcinoma) were obtained from the Regional Center for Mycology and Biotechnology, Al-Azhar University, Cairo, Egypt.\n(§2) The antitumor assay was carried out on the above cell lines as published by A Ooi et al., ‘A Guide to Transient Expression of Membrane Proteins in HEK-293 Cells for Functional Characterization”, Front. Physiol. 7:300, published online 19 Jul. 2016, for all of the extracts which have been obtained in section above (A, R, AL, APC, RPC, APB, RPB, AR &RR). Briefly, the cell lines were suspended in medium at a concentration of 5×10^4 cell/well in Corning® 96-well tissue culture plates and then incubated for 24 hr. The tested extracts were then added into 96-well plates (six replicates) to achieve seven concentrations for each extract. […] After incubation for 24 h, the numbers of viable cells were determined by the MTT assay method. […] Then, the optical density was measured at 590 nm with the microplate reader to determine the number of viable cells. The percentage of viability was calculated as: (ODt/ODc)×100%, where ODt is the mean optical density of wells treated with the tested sample and ODc is the mean optical density of untreated cells. […]"}, "[2]": {"tested_on": "HCT-116 (Colon carcinoma)", "experiment": "MTT cytotoxicity assay, HCT-116", "settings": "Homo sapiens, 24 h incubation", "procedure": "as §1, §2"}, "[3]": {"tested_on": "CACO (Colorectal carcinoma)", "experiment": "MTT cytotoxicity assay, CACO", "settings": "24 h incubation", "procedure": "as §1, §2"}, "[4]": {"tested_on": "MCF-7 (Breast carcinoma)", "experiment": "MTT cytotoxicity assay, MCF-7", "settings": "Homo sapiens, MCF7, 24 h incubation", "procedure": "as §1, §2"}, "[5]": {"tested_on": "HepG-2 (Hepatocellular carcinoma)", "experiment": "MTT cytotoxicity assay, HepG-2", "settings": "Homo sapiens, HepG2, 24 h incubation", "procedure": "as §1, §2"}}, "note": "Structures can show the parent of a compound that is named as a salt.", "data": [{"smiles": "CC[C@]1(O)C[C@@H]2CN(CCc3c([nH]c4ccccc34)[C@@](C(=O)OC)(c3cc4c(cc3OC)N(C)[C@H]3[C@@](O)(C(=O)OC)[C@H](OC(C)=O)[C@]5(CC)C=CCN6CC[C@]43[C@@H]65)C2)C1", "note": "[Vinblastine sulfate]", "values": [{"measurement": "IC50", "setting": "[1]", "value": "30.3 ± 1.4", "unit": "µg/mL"}, {"measurement": "IC50", "setting": "[2]", "value": "3.5 ± 0.2", "unit": "µg/mL"}, {"measurement": "IC50", "setting": "[3]; 24 h", "value": "24.6 ± 0.7", "unit": "µg/mL"}, {"measurement": "IC50 CACO (Colorectal carcinoma)", "setting": "[3]", "value": "30.3 ± 1.4", "unit": "µg/mL"}, {"measurement": "IC50", "setting": "[4]", "value": "5.9 ± 0.4", "unit": "µg/mL"}, {"measurement": "IC50", "setting": "[5]", "value": "2.93 ± 0.3", "unit": "µg/mL"}]}]}
